Read-outs that look alike come from different tables or passages of the source.
Tests used:
[1] = tested on: patients with chronic and stable compensated congestive HF; experiment: Open-label pilot study of IV recombinant relaxin over 24 hours in chronic heart failure patients; assay type: in vivo, human; details: for CI Change from baseline / CO Change from baseline / DBP Change from baseline / HR Change from baseline / PAP Change from baseline / PCWP Change from baseline / PVR Change from baseline / RAP Change from baseline / SBP Change from baseline / SVR Change from baseline: 960 mcg/kg/d IV, mean ± SD
Protocol: Overview. In this open-label study 16 patients with chronic and stable compensated congestive HF were enrolled in three dose-ascending cohorts of recombinant intravenous relaxin (10 to 960 mcg/kg/day) over 24 hours. Relaxin produced increases in cardiac index and stroke volume, and a decrease in pulmonary wedge pressure and NT-pro BNP. It improved markers of renal function, with a small rebound at the highest dose during post-infusion. […] A maximally tolerated dose was determined.
Design of Study. In this single-center, open-label study, 16 patients who fulfilled inclusion and but not exclusion criteria for chronic and stable compensated congestive HF were sequentially allocated to three ascending cohorts of intravenous (IV) relaxin. Main inclusion criteria included: Age >18 years; NYHA CHF Class II-III without restriction on etiology; left ventricular ejection fraction <35% within 6 months of enrollment; receiving established oral HF therapy expected to remain unchanged during the study period. Main exclusion criteria included: Wedge pressure <16 mmH or CI >2.5 L/min/m2; acute coronary syndrome (within 4 weeks) or recent myocardial infarction or cardiac surgery (within 6 months); AHF requiring intravenous therapy at baseline; systolic blood pressure <85 mmHg; uncorrected valvular heart disease, except for relative mitral and/or tricuspid valve insufficiency; obstructive or restrictive cardiomyopathy; recent episode of ventricular tachycardia or fibrillation (within 4 weeks); recent stroke (within 3 months); creatinine >2.0 mg/dl or serum transaminases and/or total bilirubin >2.5 times the upper limit of normal at screening visit; history of endometriosis.
The study drug was relaxin (produced by recombinant technology). Recombinant relaxin is identical to the native human hormone H2 relaxin. The dose escalation was as follows: Group A included sequential treatment for 8 hours each with dosages equivalent to 10, 30, and 100 mcg/kg/day. Group B included sequential treatment for 8 hours each with dosages equivalent to 240, 480, and 960 mcg/kg/day. Group C received 24 hours of treatment with 960 mcg/kg/day. Escalation from Group A to Group B was done after examining safety and tolerability of the doses used in Group A. Escalation from Group B to C occurred after the safety and tolerability of the highest dose in Group B (960 mcg/kg/day) was determined.
Patients were monitored in the intensive care unit for the infusion and post-infusion periods (24 hours either). Hemodynamic measurements, including CI, SVR, PCWP, SBP, RAP, and PVR, were serially performed using Swan-Ganz and arterial catheters. Likewise, clinical and laboratory monitoring was carried out serially throughout infusion and post-infusion and on Day 9 after beginning of infusion. An additional 30-day evaluation for serious adverse events was performed by phone. Endpoints included hemodynamic and neurohumoral (NT-pro BNP levels) changes from baseline, as well as monitoring of vital signs, electrocardiogram, serum chemistry, and hematology parameters throughout the study. For statistical analysis, an error probability of P<0.05 was regarded as significant. Baseline values were compared using the Kruskal-Wallis ANOVA on ranks followed by Dunn's test. Differences over time within the single groups (hemodynamics, renal parameter, and peptide levels) were analyzed with a Friedman Repeated Measures Analysis of Variance on Ranks followed by Dunn's test for comparison against the baseline.

healthy volunteers = details: cited from earlier work
[2] = tested on: hypertensive and normotensive rats; details: cited from earlier work
[3] = tested on: systemic sclerosis patients; experiment: Clinical trials of relaxin by continuous subcutaneous infusion for six months in systemic sclerosis patients; assay type: in vivo, human; details: continuous SQ infusion for six months
Description: Clinical trials with relaxin have also been conducted on systemic sclerosis patients. 257 human subjects who suffer from systemic sclerosis, a serious fibrotic disease, have been treated with relaxin by continuous and subcutaneous (SQ) infusion for six months. […] These findings support the hypothesis that relaxin administration was associated with balanced systemic and renal vasodilation.

[4] = tested on: systemic sclerosis patients; details: scleroderma patients (Seibold et al. 2000); cited from earlier work
[5] = Group C, 960 mcg/kg/d IV over 24 hours

**Q.** What does the source list for “relaxin: Study drug produced by recombinant technology, identical to the native human hormone H2 relaxin; peptide hormone of A and B chains”?
**A.** CI Change from baseline ([1]; Group B, 8 hr): 0.25 ± 0.3 L/min/m2; CO Change from baseline ([1]; Group B, 8 hr): 0.48 ± 0.7 L/min; DBP Change from baseline ([1]; Group B, 8 hr): −0.3 ± 6.8 mmHg; HR Change from baseline ([1]; Group B, 8 hr): 1.8 ± 3.4 beats/min; PAP Change from baseline ([1]; Group B, 8 hr): 0.3 ± 3.7 mmHg; PCWP Change from baseline ([1]; Group B, 8 hr): −0.17 ± 2.7 mmHg; PVR Change from baseline ([1]; Group B, 8 hr): 3.3 ± 27.5 dynes * sec/cm5; RAP Change from baseline ([1]; Group B, 8 hr): 0.8 ± 1.2 mmHg; SBP Change from baseline ([1]; Group B, 8 hr): −3.0 ± 5.1 mmHg; SVR Change from baseline ([1]; Group B, 8 hr): −102 ± 248 dynes * sec/cm5; absolute decreases in PCWP [1, 5]: approximately 4 mm Hg; absolute increases of CI [1, 5]: up to 0.81 /min/m2; CI Change from baseline ([1]; Group C, 8 hr): 0.43 ± 0.3 L/min/m2; CO Change from baseline ([1]; Group C, 8 hr): 0.85 ± 0.5 L/min; DBP Change from baseline ([1]; Group C, 8 hr): −4.8 ± 5.4 mmHg; HR Change from baseline ([1]; Group C, 8 hr): 2.5 ± 4.3 beats/min; PAP Change from baseline ([1]; Group C, 8 hr): −3.2 ± 3.1 mmHg; PCWP Change from baseline ([1]; Group C, 8 hr): −2.5 ± 3.5 mmHg; PVR Change from baseline ([1]; Group C, 8 hr): −58.5 ± 69.4 dynes * sec/cm5; RAP Change from baseline ([1]; Group C, 8 hr): −1.2 ± 2.9 mmHg; SBP Change from baseline ([1]; Group C, 8 hr): −1.3 ± 4.7 mmHg; SVR Change from baseline ([1]; Group C, 8 hr): −255 ± 188 dynes * sec/cm5; CI Change from baseline ([1]; Group C, 24 hr): 0.67 ± 0.15 L/min/m2; CO Change from baseline ([1]; Group C, 24 hr): 1.25 ± 0.03 L/min; DBP Change from baseline ([1]; Group C, 24 hr): −6.5 ± 7.5 mmHg; HR Change from baseline ([1]; Group C, 24 hr): 0.67 ± 3.6 beats/min; PAP Change from baseline ([1]; Group C, 24 hr): −5.0 ± 3.4 mmHg; PCWP Change from baseline ([1]; Group C, 24 hr): −3.5 ± 3.0 mmHg; PVR Change from baseline ([1]; Group C, 24 hr): −82.5 ± 55.5 dynes * sec/cm5; RAP Change from baseline ([1]; Group C, 24 hr): −1.5 ± 2.7 mmHg; SBP Change from baseline ([1]; Group C, 24 hr): −7.3 ± 9.5 mmHg; SVR Change from baseline ([1]; Group C, 24 hr): −395 ± 217 dynes * sec/cm5; drop of PVR ([1]; Group C, 960 mcg/kg/day IV): ~30%; time course of NT-pro BNP ([1]; Groups A and C): significant declines; creatinine and BUN post-infusion ([1]; after doses equivalent to 960 mcg/kg/day IV, spontaneously resolved by Day 30): increase on Day 9; tolerability ([1]; all doses, 10-960 mcg/kg/day IV): well tolerated; infusion-related adverse events ([1]; all groups): no infusion-related clinically significant adverse events; symptomatic hypotension ([1]; all groups): no symptomatic hypotension was observed; heart rate ([1]; all groups, 10-960 mcg/kg/d IV): did not change in any group; creatinine values during infusion ([1]; all groups, significant in groups A and C): decreased; right atrial pressure ([1]; all treatment groups): None of the treatment groups showed a significant decrease; alterations of SBP ([1]; in general, all groups): significant alterations of SBP (FIG. 8) were not observed; vital signs, ECG, serum chemistry, and hematology parameters ([1]; throughout the study): did not evoke any abnormalities; maximally tolerated dose (MTD) of IV relaxin ([1]; without physician supervision, chronic HF patients): 240 to 480 µg/kg/day; renal blood flow (healthy volunteers): increases renal blood flow; CI [2]: increase in CI; SVR [2]: decrease in SVR; mean arterial pressure [2]: without affecting mean arterial pressure; blood pressure [3]: stable decreases in blood pressure; predicted creatinine clearance [3]: statistically significant increase; serious hypotensive events [3]: did not experience any serious hypotensive events; predicted creatinine clearance [4]: sustained amelioration

From patent US20160287672A1, “METHOD OF TREATING CHRONIC HEART FAILURE BY ADMINISTERING RELAXIN” (priority 2008, published 2016)
